# Data as given in BindingDB's records for doi:10.1016/s0196-9781(99)00098-4 (Uppsala University, 1999).
# Key:
# [1] = target: T1, Neuropeptide Y receptor type 1 (Rattus norvegicus, UniProt P21555)
# T1 sequence (P21555 whole entry): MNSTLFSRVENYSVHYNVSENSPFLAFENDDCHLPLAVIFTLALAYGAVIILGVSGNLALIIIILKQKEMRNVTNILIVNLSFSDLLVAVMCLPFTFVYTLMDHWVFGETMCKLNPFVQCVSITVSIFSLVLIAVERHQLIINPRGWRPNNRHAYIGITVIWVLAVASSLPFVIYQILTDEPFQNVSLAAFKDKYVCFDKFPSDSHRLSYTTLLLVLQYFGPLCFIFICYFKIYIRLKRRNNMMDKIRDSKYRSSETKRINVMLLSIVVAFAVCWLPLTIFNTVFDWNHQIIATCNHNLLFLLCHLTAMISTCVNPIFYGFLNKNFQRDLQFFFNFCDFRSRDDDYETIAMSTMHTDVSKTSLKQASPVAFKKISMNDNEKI
# [2] = target: T2, Neuropeptide Y receptor type 1 (Cavia porcellus, UniProt Q9WVD0)
# T2 sequence (Q9WVD0 whole entry): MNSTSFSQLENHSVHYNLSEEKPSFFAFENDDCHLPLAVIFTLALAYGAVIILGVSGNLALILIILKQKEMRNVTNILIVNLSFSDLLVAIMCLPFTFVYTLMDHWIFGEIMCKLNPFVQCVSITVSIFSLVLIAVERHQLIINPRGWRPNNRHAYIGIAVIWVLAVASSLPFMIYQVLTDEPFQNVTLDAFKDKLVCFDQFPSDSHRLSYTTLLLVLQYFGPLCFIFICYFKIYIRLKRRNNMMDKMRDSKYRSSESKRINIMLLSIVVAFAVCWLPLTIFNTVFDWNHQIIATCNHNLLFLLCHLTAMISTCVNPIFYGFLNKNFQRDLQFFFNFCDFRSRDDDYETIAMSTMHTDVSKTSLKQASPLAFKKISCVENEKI
Molecule,Ki [1] [nM],Ki [2] [nM]
CN(C)CC1CCC(CN=C(N)c2ccc(CC(NC(=O)C(Cc3ccccc3)NS(=O)(=O)c3ccc4ccccc4c3)C(=O)N3CCCC3)cc2)CC1 (stereo not given) [CAS_5312150],1.3,0.8
"H-INPIYRLRY-NH2 [NPY 28-36, [P30, Y32, L34]]",1.4,2.4
N=C(N)NCCCC(NC(=O)C(c1ccccc1)c1ccccc1)C(=O)NCc1ccc(O)cc1 (stereo not given) [NSC_5311023],–,4.9
